Among the data in ChEMBL document CHEMBL1126757, “Benzoquinazoline inhibitors of thymidylate synthase: enzyme inhibitory activity and cytotoxicity of some 3-amino- and 3-methylbenzo[f]quinazolin-1(2H)-ones” (J Med Chem, 1993) are inhibition, IC50 and Km values, retold here.

The target of data set [1] is T1, Thymidylate synthase (Homo sapiens, UniProt P04818). Description: Tested for percent inhibition against thymidylate synthase (TS) in human at 496 uM.
Target sequence in this assay (P04818 whole entry, looked up): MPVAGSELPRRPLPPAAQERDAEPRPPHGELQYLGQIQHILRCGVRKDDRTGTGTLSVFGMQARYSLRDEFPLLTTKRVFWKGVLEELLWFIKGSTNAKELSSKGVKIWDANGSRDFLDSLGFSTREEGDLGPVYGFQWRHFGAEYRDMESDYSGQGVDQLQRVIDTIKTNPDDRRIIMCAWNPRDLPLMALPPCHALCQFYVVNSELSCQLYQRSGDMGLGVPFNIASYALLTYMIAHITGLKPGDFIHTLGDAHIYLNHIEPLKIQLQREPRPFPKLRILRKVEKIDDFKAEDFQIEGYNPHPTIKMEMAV
The target in data set [2] is Thymidylate synthase (Escherichia coli) (UniProt C3SWJ7). The data set is described as follows: Tested for inhibition against thymidylate synthase (TS) in Escherichia coli at 496 uM.
A further data set deals with SW480. Description: cells. Particulars: Homo sapiens.
In data set [3] the target is Thymidylate synthase (Escherichia coli) (UniProt C3SWJ7). The data set is described as follows: Tested for inhibition against thymidylate synthase (TS) in Escherichia coli at 56.8 uM.
The target is the same in data set [4]. Description: Tested for percent inhibition against thymidylate synthase (TS) in Escherichia coli at 0.22 uM.
For data set [5], the system named is Thymidylate synthase (Bos taurus). Description: Tested for percent inhibition against thymidylate synthase (TS) in calf thymus at 220 uM.
Data set [6] relates to Thymidylate synthase (Candida albicans). The data set is described as follows: Tested for percent inhibition against thymidylate synthase (TS) in Candida albicans at 100 uM.
In data set [7] the target is Thymidylate synthase (Escherichia coli) (UniProt C3SWJ7). Description: Tested for inhibition against thymidylate synthase (TS) in Escherichia coli at 105 uM.
Data set [8] has as its target T1, Thymidylate synthase. Description: Tested against thymidylate synthase (TS) in human at 105 uM.
Target sequence in this assay (P04818 whole entry, looked up): as above
Data set [9] has as its target Thymidylate synthase (Escherichia coli) (UniProt C3SWJ7). Description: Tested for percent inhibition against thymidylate synthase (TS) in Escherichia coli at 764.0 uM.
Target sequence in this assay (C3SWJ7 1-264): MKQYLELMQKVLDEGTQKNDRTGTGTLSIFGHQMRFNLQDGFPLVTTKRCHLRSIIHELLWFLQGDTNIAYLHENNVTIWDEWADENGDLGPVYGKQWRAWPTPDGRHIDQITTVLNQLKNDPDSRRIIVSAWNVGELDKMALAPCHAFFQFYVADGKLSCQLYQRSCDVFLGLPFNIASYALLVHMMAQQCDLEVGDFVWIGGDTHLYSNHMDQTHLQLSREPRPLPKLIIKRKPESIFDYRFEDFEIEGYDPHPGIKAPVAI
For data set [10], the system named is Thymidylate synthase (Candida albicans). The data set is described as follows: Tested for inhibition against thymidylate synthase (TS) in Candida albicans at 10 uM.
Data set [11] deals with T2, Thymidylate synthase (Escherichia coli, UniProt C3SWJ7). Description: (§1) Tested against thymidylate synthase (TS) in E. coli. Particulars: read-out: I50.
In data set [12] the target is T2, Thymidylate synthase. The data set is described as follows: Inhibition against thymidylate synthase (TS) in Escherichia coli. Particulars: read-out: I50.
Data set [13] concerns Thymidylate synthase (Bos taurus). Description: Tested against thymidylate synthase (TS) in calf thymus at 765 uM.
The target of data set [14] is Thymidylate synthase (Escherichia coli) (UniProt C3SWJ7). The data set is described as follows: Tested against thymidylate synthase (TS) in E. coli at 440 uM.
In data set [15] the target is T1, Thymidylate synthase. The data set is described as follows: Tested against thymidylate synthase (TS) in human at 440 uM.
Target sequence in this assay (P04818 whole entry, looked up): as the sequence (P04818 whole entry, looked up) above
Data set [16] addresses Thymidylate synthase (Escherichia coli) (UniProt C3SWJ7). Description: Tested for percent inhibition against thymidylate synthase (TS) in Escherichia coli at 0.5 uM.
Data set [17] relates to Thymidylate synthase (Bos taurus). The data set is described as follows: Tested for percent inhibition against thymidylate synthase (TS) in calf thymus at 400 uM.
In data set [18] the target is T1, Thymidylate synthase. Description: Activity against human thymidylate synthase (TS). Particulars: read-out: I50.
Target sequence in this assay (P04818 whole entry): as the sequence (P04818 whole entry, looked up) above
The nature of data set [19]: Michaelis-Menten constant for the compound was determined. It is filed as ADME.
Data set [20] concerns the target T1, Thymidylate synthase. The data set is described as follows: Tested for percent inhibition against thymidylate synthase (TS) in human at 96.8 uM.
Target sequence in this assay (P04818 whole entry, looked up): as above
Data set [21] has as its target Thymidylate synthase (Escherichia coli) (UniProt C3SWJ7). The data set is described as follows: Tested for percent inhibition against thymidylate synthase (TS) in Escherichia coli at 60.8 uM.
The target in data set [22] is T1, Thymidylate synthase.
Target sequence in this assay (P04818 whole entry): as the sequence (P04818 whole entry, looked up) above
In data set [23] the target is T1, Thymidylate synthase. The data set is described as follows: Tested for inhibition against thymidylate synthase (TS) in human.
Target sequence in this assay (P04818 whole entry): as the sequence (P04818 whole entry, looked up) above
The target of data set [24] is T1, Thymidylate synthase. Description: Tested for percent inhibition against thymidylate synthase (TS) in human at 19 uM.
Target sequence in this assay (P04818 whole entry, looked up): as above
For data set [25], the target named is T1, Thymidylate synthase. The data set is described as follows: Tested for percent inhibition against thymidylate synthase (TS) in human at 74.8 uM.
Target sequence in this assay (P04818 whole entry, looked up): as above
The target of data set [26] is Thymidylate synthase (Escherichia coli) (UniProt C3SWJ7). Description: Tested for percent inhibition against thymidylate synthase (TS) in Escherichia coli at 18.8 uM.
The test system of data set [27] is Thymidylate synthase (Candida albicans). The data set is described as follows: Tested for percent inhibition against thymidylate synthase (TS) in Candida albicans at […].
Data set [28] deals with Thymidylate synthase (Escherichia coli) (UniProt C3SWJ7). The description is as §1. Particulars: concentration not given here.
Data set [29] has the same target. Description: Tested for percent inhibition against thymidylate synthase (TS) in Escherichia coli at 16.8 uM.
Data set [30] shares this target. Description: Tested against thymidylate synthase (TS) in E. coli at […].
The target of data set [31] is T1, Thymidylate synthase. Description: Tested against thymidylate synthase (TS) in human at […].
Data set [32] deals with Thymidylate synthase (Candida albicans). The data set is described as follows: Tested against thymidylate synthase (TS) in Candida albicans at 84 uM.

T2 sequence (C3SWJ7 whole entry): as the sequence (C3SWJ7 1-264) above

One may read the inhibition as the percentage by which the read-out fell short of the control. Higher therefore signals strong suppression. For `Cc1nc(O)c2c(n1)CCc1c(Br)cccc1-2`, the inhibition is 49% at Thymidylate synthase [1] and 0% in [2]. For the same compound, the IC50 in the data set on SW480 was found to be 50 µM.

Turning to `Nc1nc(O)c2c(ccc3c(Cl)cccc32)n1`, the inhibition in data set [3] came to 40%. In addition, the IC50 in the data set on SW480 is 25 µM.

Regarding `Nc1nc(O)c2c(n1)CCc1c(-c3ccccc3)cccc1-2`, the inhibition in data set [4] was 0%; in data set [5], 41%; in [6] it was 2.8%.

`Cc1nc(O)c2c(n1)CCc1cc(Br)ccc1-2`: the values for the inhibition (in [7]; against Thymidylate synthase [8]) were 0% and 16%, respectively. The same compound showed an IC50 in the data set with SW480 of 65 µM.

In [9], `Nc1nc(O)c2c(ccc3cc(F)cc([N+](=O)[O-])c32)n1` had an inhibition of 41%. This compound also had an IC50 with SW480 of 50 µM.

For the compound `Nc1nc(O)c2c(n1)CCc1cc(Cl)c(Cl)cc1-2`, in the data set with SW480, the IC50 stood at 24 µM. The compound also returned an inhibition in data set [10] of 21.7%.

As for `Cc1nc(O)c2c(ccc3ccc(F)cc32)n1`, the IC50 on Thymidylate synthase [11] was determined as 29.6 µM; in the data set with SW480, 100 µM.

`COc1cc2c(cc1OC)-c1c(O)nc(N)nc1CC2`: on Thymidylate synthase [12], the IC50 is 762 µM. The compound further gave an inhibition in data set [13] of 25%.

As to `Cc1nc(O)c2c(n1)CCc1cc([N+](=O)[O-])ccc1-2`, the inhibition came out at 4% in data set [14] and 20% on Thymidylate synthase [15]. Further, in the data set with SW480, the IC50 worked out at 100 µM.

Regarding `Nc1nc(O)c2c(n1)CCc1ccc(-c3ccccc3)cc1-2`, the inhibition in data set [16] came out at 0%; in [17], 25%.

For `Cc1nc2c(c(=O)[nH]1)-c1cccc(I)c1CC2`, the IC50 on Thymidylate synthase [18] was found to be 154 µM.

Broadly, the Km is the concentration of substrate that gives half-maximal velocity. With `O=c1ccn(C2O[C@H](COP(=O)(O)O)[C@@H](O)[C@@H]2O)c(=O)[nH]1` (some centres not stated), the Km in data set [19] was determined as 3 µM.

With `Nc1nc(O)c2c(n1)CCc1c(Cl)cccc1-2`, the figures for the inhibition (on Thymidylate synthase [20]; in data set [6]) were 38% and 23.1%, respectively. Moreover, at Thymidylate synthase [12], the IC50 is 369 µM.

Take `Nc1nc(O)c2c3ccccc3c3ccccc3c2n1`: the inhibition in [21] is 25%. For the same compound, the IC50 on Thymidylate synthase [22] worked out at 24 µM; in the data set on SW480 it was 4 µM.

In the case of `Nc1nc2c(c(=O)[nH]1)-c1cc(Cl)c(Cl)cc1CC2`, the IC50 is 6.7 µM at Thymidylate synthase [12] and 2.96 µM against Thymidylate synthase [23].

With `Nc1nc(O)c2c(ccc3c(N)c(F)ccc32)n1`, on Thymidylate synthase [24], the inhibition came to 29%. In addition, the IC50 on Thymidylate synthase [12] stood at 119 µM; with SW480, 30 µM.

As to `Nc1nc(O)c2c(ccc3cc(Br)ccc32)n1`, the inhibition was found to be 37% at Thymidylate synthase [25], 32% in [26] and 32.3% in data set [27].

Turning to `Nc1nc2c(c(=O)[nH]1)-c1cccc(F)c1CC2`, the IC50 is 99 µM at Thymidylate synthase [12], 83.6 µM against Thymidylate synthase [22] and above 100 µM in the data set on SW480.

In the case of `Cc1nc(O)c2c(ccc3ccc(I)cc32)n1`, the inhibition in [28] stood at 28%. Moreover, the IC50 in the data set on SW480 is above 100 µM.

`Nc1nc(O)c2c(ccc3c(Br)cccc32)n1` gave an inhibition in data set [29] of 41%. Moreover, in the data set with SW480, the IC50 came out at 10 µM.

`COc1ccc2c(c1)-c1c(O)nc(N)nc1CC2`: the results for the IC50 on Thymidylate synthase [12], against Thymidylate synthase [22] and in the data set with SW480 were 6 µM, 3.6 µM and 25 µM, respectively.

As to `CCc1ccc2ccc3nc(N)nc(O)c3c2c1`, the figures for the IC50 on Thymidylate synthase [12], at Thymidylate synthase [22] and in the data set on SW480 were 7.7 µM, 0.49 µM and 20 µM, respectively.

Consider `Cc1nc(O)c2c(ccc3cc(F)ccc32)n1`, for which the values for the inhibition (in [30]; at Thymidylate synthase [31]; in data set [32]) were 8.5%, 25% and 4.8%, respectively. In the data set with SW480, this compound returned an IC50 of 15 µM.
